Data: patent US7211572B2 (Japan Tobacco Inc., priority 2003, dated 2007)
Counter-ions that a name gives are not always drawn.

What follows are compounds tested against T1, HIV integrase (Human immunodeficiency virus type 1 group M subtype B, UniProt P12497, F1332H) (assay: Determination of enzyme (HIV integrase) inhibitory activity). Settings: recombinant HIV integrase (F185H), strand transfer ELISA, absorbance at 450 nm.
T1 construct: HIV integrase full length gene; made in house; host or cells: Escherichia coli BL21(DE3), plasmid pET21a-INH
Format: biochemical
Procedure, shortened: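 Full-length integrase with F185H, expressed in E. coli and purified, was reacted for 60 min at 37 °C with compound and biotinylated donor DNA bound to streptavidin plates. Target DNA was added for 10 min, then anti-digoxigenin-peroxidase detection at A450; IC50 from % inhibition versus enzyme-free blank.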

For `Nc1cn2ccn(Cc3cccc(Cl)c3)c(=O)c2c(O)c1=O` [Example 161, 7-amino-2-(3-chlorobenzyl)-9-hydroxy-2H-pyrido[1,2-a]pyrazine-1,8-dione hydrochloride], which IC50 is on record?
The IC50 was 0.01 to 0.1 µM.

For `Cc1nn(Cc2cccc(Cl)c2)c(=O)c2c(O)c(=O)ccn12` [Example 162, 2-(3-chlorobenzyl)-9-hydroxy-4-methyl-2H-pyrido[1,2-d][1,2,4]triazine-1,8-dione hydrochloride], which IC50 is on record?
Its IC50 is 0.01 to 0.1 µM.

For `O=c1c(-c2nccs2)cn2ccn(Cc3cccc(Cl)c3)c(=O)c2c1O` [Example 163, 2-(3-chlorobenzyl)-9-hydroxy-7-(thiazol-2-yl)-2H-pyrido[1,2-a]pyrazine-1,8-dione hydrochloride], which IC50 is on record?
The IC50 was less than 0.01 µM.

`O=c1c(-c2nnc[nH]2)cn2ccn(Cc3cccc(Cl)c3)c(=O)c2c1O` [Example 164, 2-(3-chlorobenzyl)-9-hydroxy-7-(4H-1,2,4-triazol-3-yl)-2H-pyrido[1,2-a]pyrazine-1,8-dione hydrochloride] was tested. Which IC50 did it give?
The IC50 was 0.01 to 0.1 µM.

How did the IC50 turn out when `CC(=O)Nc1cn2ccn(Cc3cccc(Cl)c3)c(=O)c2c(O)c1=O` [Example 165, N-[2-(3-chlorobenzyl)-9-hydroxy-1,8-dioxo-1,8-dihydro-2H-pyrido[1,2-a]pyrazin-7-yl]acetamide] was run?
The IC50 was 0.01 to 0.1 µM.

For `COc1cc(Cl)ccc1Cn1ccn2ccc(=O)c(O)c2c1=O` [Example 166, 2-(4-chloro-2-methoxybenzyl)-9-hydroxy-2H-pyrido[1,2-a]pyrazine-1,8-dione hydrochloride], which IC50 is on record?
Its IC50 is 0.01 to 0.1 µM.

Which IC50 does the source give for `NC(=O)c1cn2ccn(Cc3cccc(Cl)c3)c(=O)c2c(O)c1=O` [Example 167, 2-(3-chlorobenzyl)-9-hydroxy-1,8-dioxo-1,8-dihydro-2H-pyrido[1,2-a]pyrazine-7-carboxamide] here?
The IC50 was 0.01 to 0.1 µM.

Which IC50 does the source give for `COc1c(Cl)cccc1Cn1ccn2ccc(=O)c(O)c2c1=O` [Example 168, 2-(3-chloro-2-methoxybenzyl)-9-hydroxy-2H-pyrido[1,2-a]pyrazine-1,8-dione hydrochloride] here?
Its IC50 is 0.01 to 0.1 µM.

For `O=c1ccn2ccn(CCOc3ccccc3Cl)c(=O)c2c1O` [Example 169, 2-[2-(2-chlorophenoxy)ethyl]-9-hydroxy-2H-pyrido[1,2-a]pyrazine-1,8-dione hydrochloride], which IC50 is on record?
Its IC50 is 0.1 to 1 µM.

`O=c1c(-c2ncccn2)cn2ccn(Cc3cccc(Cl)c3)c(=O)c2c1O` [Example 170, 2-(3-chlorobenzyl)-9-hydroxy-7-(pyrimidin-2-yl)-2H-pyrido[1,2-a]pyrazine-1,8-dione hydrochloride] was tested. Which IC50 did it give?
The IC50 was 0.01 to 0.1 µM.

Which IC50 does the source give for `CCCNC(=O)c1cn2ccn(Cc3cccc(Cl)c3)c(=O)c2c(O)c1=O` [Example 171, N-propyl-2-(3-chlorobenzyl)-9-hydroxy-1,8-dioxo-1,8-dihydro-2H-pyrido[1,2-a]pyrazine-7-carboxamide] here?
Its IC50 is less than 0.01 µM.

Which IC50 does the source give for `CCCCNC(=O)c1cn2ccn(Cc3cccc(Cl)c3)c(=O)c2c(O)c1=O` [Example 172, N-butyl-2-(3-chlorobenzyl)-9-hydroxy-1,8-dioxo-1,8-dihydro-2H-pyrido[1,2-a]pyrazine-7-carboxamide] here?
Its IC50 is less than 0.01 µM.

Which IC50 does the source give for `CC(C)CNC(=O)c1cn2ccn(Cc3cccc(Cl)c3)c(=O)c2c(O)c1=O` [Example 173, N-isobutyl-2-(3-chlorobenzyl)-9-hydroxy-1,8-dioxo-1,8-dihydro-2H-pyrido[1,2-a]pyrazine-7-carboxamide] here?
Its IC50 is 0.01 to 0.1 µM.

For `COC(=O)CNC(=O)c1cn2ccn(Cc3cccc(Cl)c3)c(=O)c2c(O)c1=O` [Example 174, methyl{[2-(3-chlorobenzyl)-9-hydroxy-1,8-dioxo-1,8-dihydro-2H-pyrido[1,2-a]pyrazine-7-carbonyl]amino}acetate], which IC50 is on record?
The IC50 was 0.01 to 0.1 µM.

For `CCNC(=O)c1cn2ccn(Cc3cccc(Cl)c3)c(=O)c2c(O)c1=O` [Example 175, N-ethyl-2-(3-chlorobenzyl)-9-hydroxy-1,8-dioxo-1,8-dihydro-2H-pyrido[1,2-a]pyrazine-7-carboxamide], which IC50 is on record?
The IC50 was less than 0.01 µM.
